Oligonucleotides are given in HELM: sugar(base)linkage, 5' to 3'; d 2'-deoxyribose, r ribose, m 2'-O-methylribose, p phosphate. ss, as = sense and antisense strand

This passage reports normalised inhibition (eCFP-eYFP dual reporter) results from the OligoGym collection.

The target in this series is UBE2D3. In words: reporter assay of Huesken 2005. To be noted: siRNA. A general note: In a reporter assay the amount or activity of a reporter protein is the signal.
Also: test concentration or dose not given here.

“RNA1{r(A)p.r(U)p.r(U)p.r(U)p.r(A)p.r(C)p.r(A)p.r(A)p.r(C)p.r(A)p.r(A)p.r(G)p.r(A)p.r(A)p.r(U)p.r(U)p.r(U)p.r(A)p.r(U)p.d(T)p.d(T)}|RNA2{r(A)p.r(U)p.r(A)p.r(A)p.r(A)p.r(U)p.r(U)p.r(C)p.r(U)p.r(U)p.r(G)p.r(U)p.r(U)p.r(G)p.r(U)p.r(A)p.r(A)p.r(A)p.r(U)p.d(G)p.d(C)}$$$RNA1{StrandType:ss}|RNA2{StrandType:as}$” registered a normalised inhibition (eCFP-eYFP dual reporter) of 74.4%.
In the case of “RNA1{r(U)p.r(U)p.r(U)p.r(A)p.r(C)p.r(A)p.r(A)p.r(C)p.r(A)p.r(A)p.r(G)p.r(A)p.r(A)p.r(U)p.r(U)p.r(U)p.r(A)p.r(U)p.r(C)p.d(T)p.d(T)}|RNA2{r(G)p.r(A)p.r(U)p.r(A)p.r(A)p.r(A)p.r(U)p.r(U)p.r(C)p.r(U)p.r(U)p.r(G)p.r(U)p.r(U)p.r(G)p.r(U)p.r(A)p.r(A)p.r(A)p.d(T)p.d(G)}$$$RNA1{StrandType:ss}|RNA2{StrandType:as}$” it was 48.8%.
To “RNA1{r(A)p.r(U)p.r(U)p.r(U)p.r(A)p.r(U)p.r(C)p.r(A)p.r(U)p.r(C)p.r(C)p.r(A)p.r(A)p.r(A)p.r(U)p.r(A)p.r(U)p.r(U)p.r(A)p.d(T)p.d(T)}|RNA2{r(U)p.r(A)p.r(A)p.r(U)p.r(A)p.r(U)p.r(U)p.r(U)p.r(G)p.r(G)p.r(A)p.r(U)p.r(G)p.r(A)p.r(U)p.r(A)p.r(A)p.r(A)p.r(U)p.d(T)p.d(C)}$$$RNA1{StrandType:ss}|RNA2{StrandType:as}$” belongs 76.2%.
In the case of “RNA1{r(C)p.r(C)p.r(U)p.r(A)p.r(C)p.r(A)p.r(G)p.r(A)p.r(C)p.r(U)p.r(A)p.r(C)p.r(C)p.r(C)p.r(C)p.r(U)p.r(U)p.r(C)p.r(A)p.d(T)p.d(T)}|RNA2{r(U)p.r(G)p.r(A)p.r(A)p.r(G)p.r(G)p.r(G)p.r(G)p.r(U)p.r(A)p.r(G)p.r(U)p.r(C)p.r(U)p.r(G)p.r(U)p.r(A)p.r(G)p.r(G)p.d(A)p.d(A)}$$$RNA1{StrandType:ss}|RNA2{StrandType:as}$” it was 99.9%; in that of “RNA1{r(C)p.r(U)p.r(G)p.r(C)p.r(U)p.r(U)p.r(U)p.r(A)p.r(A)p.r(C)p.r(A)p.r(A)p.r(U)p.r(U)p.r(U)p.r(C)p.r(U)p.r(A)p.r(A)p.d(T)p.d(T)}|RNA2{r(U)p.r(U)p.r(A)p.r(G)p.r(A)p.r(A)p.r(A)p.r(U)p.r(U)p.r(G)p.r(U)p.r(U)p.r(A)p.r(A)p.r(A)p.r(G)p.r(C)p.r(A)p.r(G)p.d(G)p.d(C)}$$$RNA1{StrandType:ss}|RNA2{StrandType:as}$”, 89.7%.
The substance “RNA1{r(A)p.r(U)p.r(G)p.r(U)p.r(U)p.r(U)p.r(C)p.r(A)p.r(U)p.r(U)p.r(G)p.r(G)p.r(C)p.r(A)p.r(A)p.r(G)p.r(C)p.r(C)p.r(A)p.d(T)p.d(T)}|RNA2{r(U)p.r(G)p.r(G)p.r(C)p.r(U)p.r(U)p.r(G)p.r(C)p.r(C)p.r(A)p.r(A)p.r(U)p.r(G)p.r(A)p.r(A)p.r(A)p.r(C)p.r(A)p.r(U)p.d(A)p.d(T)}$$$RNA1{StrandType:ss}|RNA2{StrandType:as}$” had a normalised inhibition (eCFP-eYFP dual reporter) of 90.7%.
On to “RNA1{r(U)p.r(C)p.r(U)p.r(A)p.r(A)p.r(A)p.r(G)p.r(U)p.r(U)p.r(C)p.r(U)p.r(U)p.r(U)p.r(U)p.r(A)p.r(U)p.r(C)p.r(C)p.r(A)p.d(T)p.d(T)}|RNA2{r(U)p.r(G)p.r(G)p.r(A)p.r(U)p.r(A)p.r(A)p.r(A)p.r(A)p.r(G)p.r(A)p.r(A)p.r(C)p.r(U)p.r(U)p.r(U)p.r(A)p.r(G)p.r(A)p.d(A)p.d(A)}$$$RNA1{StrandType:ss}|RNA2{StrandType:as}$”, for which the normalised inhibition (eCFP-eYFP dual reporter) was determined as 64.2%.
In the case of “RNA1{r(C)p.r(U)p.r(A)p.r(A)p.r(G)p.r(G)p.r(U)p.r(U)p.r(G)p.r(C)p.r(A)p.r(U)p.r(U)p.r(U)p.r(A)p.r(C)p.r(A)p.r(A)p.r(C)p.d(T)p.d(T)}|RNA2{r(G)p.r(U)p.r(U)p.r(G)p.r(U)p.r(A)p.r(A)p.r(A)p.r(U)p.r(G)p.r(C)p.r(A)p.r(A)p.r(C)p.r(C)p.r(U)p.r(U)p.r(A)p.r(G)p.d(G)p.d(T)}$$$RNA1{StrandType:ss}|RNA2{StrandType:as}$” it was 80.9%; in that of “RNA1{r(A)p.r(U)p.r(U)p.r(A)p.r(U)p.r(G)p.r(G)p.r(G)p.r(A)p.r(C)p.r(C)p.r(U)p.r(A)p.r(A)p.r(U)p.r(G)p.r(A)p.r(C)p.r(A)p.d(T)p.d(T)}|RNA2{r(U)p.r(G)p.r(U)p.r(C)p.r(A)p.r(U)p.r(U)p.r(A)p.r(G)p.r(G)p.r(U)p.r(C)p.r(C)p.r(C)p.r(A)p.r(U)p.r(A)p.r(A)p.r(U)p.d(T)p.d(G)}$$$RNA1{StrandType:ss}|RNA2{StrandType:as}$”, 64.1%; in that of “RNA1{r(A)p.r(A)p.r(G)p.r(C)p.r(C)p.r(A)p.r(C)p.r(A)p.r(A)p.r(U)p.r(U)p.r(A)p.r(U)p.r(G)p.r(G)p.r(G)p.r(A)p.r(C)p.r(C)p.d(T)p.d(T)}|RNA2{r(G)p.r(G)p.r(U)p.r(C)p.r(C)p.r(C)p.r(A)p.r(U)p.r(A)p.r(A)p.r(U)p.r(U)p.r(G)p.r(U)p.r(G)p.r(G)p.r(C)p.r(U)p.r(U)p.d(G)p.d(C)}$$$RNA1{StrandType:ss}|RNA2{StrandType:as}$”, 52%.
To “RNA1{r(G)p.r(A)p.r(C)p.r(U)p.r(A)p.r(C)p.r(C)p.r(C)p.r(C)p.r(U)p.r(U)p.r(C)p.r(A)p.r(A)p.r(A)p.r(C)p.r(C)p.r(A)p.r(C)p.d(T)p.d(T)}|RNA2{r(G)p.r(U)p.r(G)p.r(G)p.r(U)p.r(U)p.r(U)p.r(G)p.r(A)p.r(A)p.r(G)p.r(G)p.r(G)p.r(G)p.r(U)p.r(A)p.r(G)p.r(U)p.r(C)p.d(T)p.d(G)}$$$RNA1{StrandType:ss}|RNA2{StrandType:as}$” belongs 87.6%; to “RNA1{r(A)p.r(U)p.r(C)p.r(A)p.r(U)p.r(C)p.r(C)p.r(A)p.r(A)p.r(A)p.r(U)p.r(A)p.r(U)p.r(U)p.r(A)p.r(A)p.r(C)p.r(A)p.r(G)p.d(T)p.d(T)}|RNA2{r(C)p.r(U)p.r(G)p.r(U)p.r(U)p.r(A)p.r(A)p.r(U)p.r(A)p.r(U)p.r(U)p.r(U)p.r(G)p.r(G)p.r(A)p.r(U)p.r(G)p.r(A)p.r(U)p.d(A)p.d(A)}$$$RNA1{StrandType:ss}|RNA2{StrandType:as}$”, 32%; to “RNA1{r(U)p.r(C)p.r(A)p.r(C)p.r(U)p.r(G)p.r(C)p.r(U)p.r(A)p.r(U)p.r(G)p.r(U)p.r(G)p.r(A)p.r(U)p.r(C)p.r(C)p.r(A)p.r(A)p.d(T)p.d(T)}|RNA2{r(U)p.r(U)p.r(G)p.r(G)p.r(A)p.r(U)p.r(C)p.r(A)p.r(C)p.r(A)p.r(U)p.r(A)p.r(G)p.r(C)p.r(A)p.r(G)p.r(U)p.r(G)p.r(A)p.d(A)p.d(C)}$$$RNA1{StrandType:ss}|RNA2{StrandType:as}$”, 95.2%.
To “RNA1{r(U)p.r(U)p.r(C)p.r(U)p.r(G)p.r(C)p.r(A)p.r(G)p.r(G)p.r(U)p.r(C)p.r(C)p.r(A)p.r(G)p.r(U)p.r(U)p.r(G)p.r(G)p.r(G)p.d(T)p.d(T)}|RNA2{r(C)p.r(C)p.r(C)p.r(A)p.r(A)p.r(C)p.r(U)p.r(G)p.r(G)p.r(A)p.r(C)p.r(C)p.r(U)p.r(G)p.r(C)p.r(A)p.r(G)p.r(A)p.r(A)p.d(C)p.d(A)}$$$RNA1{StrandType:ss}|RNA2{StrandType:as}$” belongs 50%; to “RNA1{r(A)p.r(C)p.r(A)p.r(A)p.r(U)p.r(U)p.r(C)p.r(A)p.r(U)p.r(U)p.r(U)p.r(U)p.r(C)p.r(C)p.r(U)p.r(A)p.r(C)p.r(A)p.r(G)p.d(T)p.d(T)}|RNA2{r(C)p.r(U)p.r(G)p.r(U)p.r(A)p.r(G)p.r(G)p.r(A)p.r(A)p.r(A)p.r(A)p.r(U)p.r(G)p.r(A)p.r(A)p.r(U)p.r(U)p.r(G)p.r(U)p.d(C)p.d(A)}$$$RNA1{StrandType:ss}|RNA2{StrandType:as}$”, 76.2%; to “RNA1{r(C)p.r(A)p.r(A)p.r(G)p.r(C)p.r(C)p.r(A)p.r(C)p.r(A)p.r(A)p.r(U)p.r(U)p.r(A)p.r(U)p.r(G)p.r(G)p.r(G)p.r(A)p.r(C)p.d(T)p.d(T)}|RNA2{r(G)p.r(U)p.r(C)p.r(C)p.r(C)p.r(A)p.r(U)p.r(A)p.r(A)p.r(U)p.r(U)p.r(G)p.r(U)p.r(G)p.r(G)p.r(C)p.r(U)p.r(U)p.r(G)p.d(C)p.d(C)}$$$RNA1{StrandType:ss}|RNA2{StrandType:as}$”, 35.2%.
“RNA1{r(C)p.r(C)p.r(U)p.r(A)p.r(G)p.r(U)p.r(G)p.r(C)p.r(C)p.r(A)p.r(G)p.r(A)p.r(G)p.r(A)p.r(U)p.r(U)p.r(G)p.r(C)p.r(A)p.d(T)p.d(T)}|RNA2{r(U)p.r(G)p.r(C)p.r(A)p.r(A)p.r(U)p.r(C)p.r(U)p.r(C)p.r(U)p.r(G)p.r(G)p.r(C)p.r(A)p.r(C)p.r(U)p.r(A)p.r(G)p.r(G)p.d(G)p.d(G)}$$$RNA1{StrandType:ss}|RNA2{StrandType:as}$” had a normalised inhibition (eCFP-eYFP dual reporter) of 86.2%.
To “RNA1{r(G)p.r(U)p.r(C)p.r(C)p.r(A)p.r(G)p.r(U)p.r(U)p.r(G)p.r(G)p.r(G)p.r(G)p.r(A)p.r(U)p.r(G)p.r(A)p.r(U)p.r(A)p.r(U)p.d(T)p.d(T)}|RNA2{r(A)p.r(U)p.r(A)p.r(U)p.r(C)p.r(A)p.r(U)p.r(C)p.r(C)p.r(C)p.r(C)p.r(A)p.r(A)p.r(C)p.r(U)p.r(G)p.r(G)p.r(A)p.r(C)p.d(C)p.d(T)}$$$RNA1{StrandType:ss}|RNA2{StrandType:as}$” belongs 88.3%; to “RNA1{r(U)p.r(U)p.r(C)p.r(A)p.r(A)p.r(A)p.r(C)p.r(C)p.r(A)p.r(C)p.r(C)p.r(U)p.r(A)p.r(A)p.r(G)p.r(G)p.r(U)p.r(U)p.r(G)p.d(T)p.d(T)}|RNA2{r(C)p.r(A)p.r(A)p.r(C)p.r(C)p.r(U)p.r(U)p.r(A)p.r(G)p.r(G)p.r(U)p.r(G)p.r(G)p.r(U)p.r(U)p.r(U)p.r(G)p.r(A)p.r(A)p.d(G)p.d(G)}$$$RNA1{StrandType:ss}|RNA2{StrandType:as}$”, 64.4%; to “RNA1{r(C)p.r(U)p.r(A)p.r(C)p.r(A)p.r(G)p.r(A)p.r(C)p.r(U)p.r(A)p.r(C)p.r(C)p.r(C)p.r(C)p.r(U)p.r(U)p.r(C)p.r(A)p.r(A)p.d(T)p.d(T)}|RNA2{r(U)p.r(U)p.r(G)p.r(A)p.r(A)p.r(G)p.r(G)p.r(G)p.r(G)p.r(U)p.r(A)p.r(G)p.r(U)p.r(C)p.r(U)p.r(G)p.r(U)p.r(A)p.r(G)p.d(G)p.d(A)}$$$RNA1{StrandType:ss}|RNA2{StrandType:as}$”, 94.9%.
